Source: ChEMBL document CHEMBL3217727, “Berberine azoles as antimicrobial agents: synthesis, biological evaluation and their interactions with human serum albumin” (Medchemcomm, 2013)
In brackets after ≈: the same amount, converted by molar mass.

Assays:
Format in all cases: functional
Saccharomyces cerevisiae = assay: Antimicrobial activity against Saccharomyces cerevisiae ATCC 9763 after 24 hrs by microbroth dilution method; conditions: ATCC 9763, 24 h
Cyberlindnera jadinii = assay: Antimicrobial activity against Candida utilis ATCC 9950 after 24 hrs by microbroth dilution method; conditions: Williopsis jadinii, ATCC 9950, 24 h
Candida = assay: Antimicrobial activity against Candida mycoderma after 24 hrs by microbroth dilution method
Candida albicans = assay: Antimicrobial activity against Candida albicans ATCC 90029 after 24 hrs by microbroth dilution method; conditions: ATCC 90029, 24 h
Micrococcus luteus = assay: Antimicrobial activity against Micrococcus luteus ATCC 4698 after 24 hrs by microbroth dilution method; conditions: NCTC 2665, 24 h
Bacillus spizizenii = assay: Antimicrobial activity against Bacillus subtilis ATCC 6633 after 24 hrs by microbroth dilution method; conditions: ATCC 6633, 24 h
Proteus vulgaris = assay: Antimicrobial activity against Proteus vulgaris ATCC 8427 after 24 hrs by microbroth dilution method; conditions: ATCC 8427, 24 h
Pseudomonas aeruginosa = assay: Antimicrobial activity against Pseudomonas aeruginosa ATCC 27853 after 24 hrs by microbroth dilution method; conditions: ATCC 27853, 24 h
Shigella dysenteriae = assay: Antimicrobial activity against Shigella dysenteriae ATCC 51252 after 24 hrs by microbroth dilution method; conditions: ATCC 51252, 24 h
Escherichia coli = assay: Antimicrobial activity against Escherichia coli […] after 24 hrs by microbroth dilution method
Staphylococcus aureus [1] = assay: Antimicrobial activity against Staphylococcus aureus ATCC 25923 after 24 hrs by microbroth dilution method; conditions: ATCC 25923, 24 h
Staphylococcus aureus [2] = assay: Antimicrobial activity against methicillin-resistant Staphylococcus aureus N315 after 24 hrs by microbroth dilution method; conditions: N315, 24 h

Row | SMILES | MIC80 (Saccharomyces cerevisiae) | MIC80 (Cyberlindnera jadinii) | MIC80 (Candida) | MIC80 (Candida albicans) | MIC (Micrococcus luteus) | MIC (Bacillus spizizenii) | MIC (Proteus vulgaris) | MIC (Pseudomonas aeruginosa) | MIC (Shigella dysenteriae) | MIC (Escherichia coli) | MIC (Staphylococcus aureus [1]) | MIC (Staphylococcus aureus [2])
1 | Fc1ccccc1CN(CCBr)CCn1cncn1 | 64 µg/mL (≈ 196 µM) | 128 µg/mL (≈ 391 µM) | 256 µg/mL (≈ 782 µM) | 32 µg/mL (≈ 97.8 µM) | 64 µg/mL (≈ 196 µM) | 256 µg/mL (≈ 782 µM) | – | – | – | – | – | –
2 | COc1ccc2cc3[n+](cc2c1OCCN(CCn1cncn1)Cc1ccc(Cl)c(Cl)c1)CCc1cc2c(cc1-3)OCO2.[Cl-] | 32 µg/mL | 32 µg/mL | 4 µg/mL | 8 µg/mL | 16 µg/mL | 8 µg/mL | – | – | – | – | – | –
3 | COc1ccc2cc3[n+](cc2c1OCCN(CCn1cncn1)Cc1cccc(Cl)c1)CCc1cc2c(cc1-3)OCO2.[Cl-] | 32 µg/mL | 8 µg/mL | 4 µg/mL | 16 µg/mL | 32 µg/mL | 16 µg/mL | – | – | – | – | – | –
4 | Fc1ccc(CN(CCBr)CCSc2nc3ccccc3[nH]2)c(F)c1 | 512 µg/mL (≈ 1200 µM) | 512 µg/mL (≈ 1200 µM) | > 512 µg/mL | > 512 µg/mL | > 512 µg/mL | > 512 µg/mL | > 512 µg/mL | > 512 µg/mL | > 512 µg/mL | > 512 µg/mL | > 512 µg/mL | > 512 µg/mL
5 | O=C(N[C@H](CO)[C@H](O)c1ccc([N+](=O)[O-])cc1)C(Cl)Cl [CHLORAMPHENICOL] | – | – | – | – | 8 µg/mL (≈ 24.8 µM) | 32 µg/mL (≈ 99 µM) | – | – | – | – | – | –
6 | Clc1ccccc1CN(CCBr)CCn1cncn1 | 256 µg/mL (≈ 745 µM) | 128 µg/mL (≈ 372 µM) | 256 µg/mL (≈ 745 µM) | 64 µg/mL (≈ 186 µM) | 64 µg/mL (≈ 186 µM) | 256 µg/mL (≈ 745 µM) | – | – | – | – | – | –
7 | Clc1ccc(CN(CCBr)CCn2cncn2)cc1 | 64 µg/mL (≈ 186 µM) | 128 µg/mL (≈ 372 µM) | 256 µg/mL (≈ 745 µM) | 128 µg/mL (≈ 372 µM) | 512 µg/mL (≈ 1490 µM) | 256 µg/mL (≈ 745 µM) | – | – | – | – | – | –
8 | COc1ccc2cc3[n+](cc2c1OCCN(CCn1cncn1)Cc1ccccc1F)CCc1cc2c(cc1-3)OCO2.[Cl-] | 16 µg/mL | 16 µg/mL | 2 µg/mL | 4 µg/mL | 8 µg/mL | 8 µg/mL | – | – | – | – | – | –
9 | COc1ccc2cc3[n+](cc2c1OCCN(CCn1cncn1)Cc1ccccc1Cl)CCc1cc2c(cc1-3)OCO2.[Cl-] | 16 µg/mL | 32 µg/mL | 8 µg/mL | 16 µg/mL | 32 µg/mL | 8 µg/mL | – | – | – | – | – | –
10 | Fc1ccc(CN(CCBr)CCn2cncn2)c(F)c1 | 128 µg/mL (≈ 371 µM) | 256 µg/mL (≈ 742 µM) | 256 µg/mL (≈ 742 µM) | 32 µg/mL (≈ 92.7 µM) | 32 µg/mL (≈ 92.7 µM) | 256 µg/mL (≈ 742 µM) | – | – | – | – | – | –
11 | COc1ccc2cc3[n+](cc2c1OCCN(CCn1nnc2ccccc21)Cc1ccc(F)cc1F)CCc1cc2c(cc1-3)OCO2.[Cl-] | 16 µg/mL | 32 µg/mL | > 512 µg/mL | > 512 µg/mL | 128 µg/mL | 128 µg/mL | 128 µg/mL | 64 µg/mL | 32 µg/mL | 128 µg/mL | 64 µg/mL | 64 µg/mL
12 | COc1ccc2cc3[n+](cc2c1OCCN(CCn1cncn1)Cc1ccc(Cl)cc1Cl)CCc1cc2c(cc1-3)OCO2.[Cl-] | 16 µg/mL | 16 µg/mL | 4 µg/mL | 4 µg/mL | 16 µg/mL | 8 µg/mL | – | – | – | – | – | –
13 | Fc1cccc(CN(CCBr)CCn2cncn2)c1 | 128 µg/mL (≈ 391 µM) | 256 µg/mL (≈ 782 µM) | 256 µg/mL (≈ 782 µM) | 32 µg/mL (≈ 97.8 µM) | 64 µg/mL (≈ 196 µM) | 256 µg/mL (≈ 782 µM) | – | – | – | – | – | –
14 | CCn1cc(C(=O)O)c(=O)c2cc(F)c(N3CCNCC3)cc21 [NORFLOXACIN] | – | – | – | – | 2 µg/mL (≈ 6.26 µM) | 1 µg/mL (≈ 3.13 µM) | – | – | – | – | – | –
15 | Cc1cc2ncn(CCN(CCBr)Cc3ccc(F)cc3F)c2cc1C | 256 µg/mL (≈ 606 µM) | 128 µg/mL (≈ 303 µM) | 64 µg/mL (≈ 152 µM) | 128 µg/mL (≈ 303 µM) | 64 µg/mL (≈ 152 µM) | 32 µg/mL (≈ 75.8 µM) | 128 µg/mL (≈ 303 µM) | 64 µg/mL (≈ 152 µM) | 16 µg/mL (≈ 37.9 µM) | 128 µg/mL (≈ 303 µM) | 64 µg/mL (≈ 152 µM) | 128 µg/mL (≈ 303 µM)
16 | OC(Cn1cncn1)(Cn1cncn1)c1ccc(F)cc1F [FLUCONAZOLE] | 16 µg/mL (≈ 52.2 µM) | 8 µg/mL (≈ 26.1 µM) | 4 µg/mL (≈ 13.1 µM) | 1 µg/mL (≈ 3.27 µM) | – | – | – | – | – | – | – | –
17 | Fc1ccc(CN(CCBr)CCn2ccnc2)c(F)c1 | 128 µg/mL (≈ 372 µM) | 64 µg/mL (≈ 186 µM) | 32 µg/mL (≈ 93 µM) | 64 µg/mL (≈ 186 µM) | 64 µg/mL (≈ 186 µM) | 128 µg/mL (≈ 372 µM) | 256 µg/mL (≈ 744 µM) | 32 µg/mL (≈ 93 µM) | 128 µg/mL (≈ 372 µM) | 128 µg/mL (≈ 372 µM) | 64 µg/mL (≈ 186 µM) | 64 µg/mL (≈ 186 µM)
18 | Fc1ccc(CN(CCBr)CCn2cnc3ccccc32)c(F)c1 | 128 µg/mL (≈ 325 µM) | 128 µg/mL (≈ 325 µM) | 64 µg/mL (≈ 162 µM) | 128 µg/mL (≈ 325 µM) | 256 µg/mL (≈ 649 µM) | 256 µg/mL (≈ 649 µM) | 512 µg/mL (≈ 1300 µM) | 128 µg/mL (≈ 325 µM) | 64 µg/mL (≈ 162 µM) | 512 µg/mL (≈ 1300 µM) | 128 µg/mL (≈ 325 µM) | 256 µg/mL (≈ 649 µM)
19 | COc1ccc2cc3[n+](cc2c1OCCN(CCSc1nc2ccccc2[nH]1)Cc1ccc(F)cc1F)CCc1cc2c(cc1-3)OCO2.[Cl-] | 64 µg/mL | 64 µg/mL | 128 µg/mL | 64 µg/mL | 128 µg/mL | 64 µg/mL | 64 µg/mL | 64 µg/mL | 128 µg/mL | 32 µg/mL | 32 µg/mL | 64 µg/mL
20 | COc1ccc2cc3[n+](cc2c1OCCN(CCn1ccnc1)Cc1ccc(F)cc1F)CCc1cc2c(cc1-3)OCO2.[Cl-] | 32 µg/mL | 32 µg/mL | 32 µg/mL | 32 µg/mL | 32 µg/mL | 16 µg/mL | 32 µg/mL | 16 µg/mL | 16 µg/mL | 32 µg/mL | 8 µg/mL | 16 µg/mL
21 | Clc1ccc(CN(CCBr)CCn2cncn2)cc1Cl | 128 µg/mL (≈ 339 µM) | 64 µg/mL (≈ 169 µM) | 256 µg/mL (≈ 677 µM) | 32 µg/mL (≈ 84.6 µM) | 32 µg/mL (≈ 84.6 µM) | 256 µg/mL (≈ 677 µM) | – | – | – | – | – | –
22 | Clc1ccc(CN(CCBr)CCn2cncn2)c(Cl)c1 | 256 µg/mL (≈ 677 µM) | 256 µg/mL (≈ 677 µM) | 256 µg/mL (≈ 677 µM) | 32 µg/mL (≈ 84.6 µM) | 32 µg/mL (≈ 84.6 µM) | 256 µg/mL (≈ 677 µM) | – | – | – | – | – | –
23 | Clc1cccc(CN(CCBr)CCn2cncn2)c1 | 128 µg/mL (≈ 372 µM) | 256 µg/mL (≈ 745 µM) | 256 µg/mL (≈ 745 µM) | 64 µg/mL (≈ 186 µM) | 64 µg/mL (≈ 186 µM) | 256 µg/mL (≈ 745 µM) | – | – | – | – | – | –
24 | COc1ccc2cc3[n+](cc2c1OCCN(CCn1cncn1)Cc1ccc(Cl)cc1)CCc1cc2c(cc1-3)OCO2.[Cl-] | 32 µg/mL | 16 µg/mL | 32 µg/mL | 32 µg/mL | 16 µg/mL | 8 µg/mL | – | – | – | – | – | –
25 | COc1ccc2cc3[n+](cc2c1OCCN(CCn1cncn1)Cc1cccc(F)c1)CCc1cc2c(cc1-3)OCO2.[Cl-] | 16 µg/mL | 8 µg/mL | 4 µg/mL | 4 µg/mL | 16 µg/mL | 8 µg/mL | – | – | – | – | – | –
26 | COc1ccc2cc3[n+](cc2c1OC)CCc1cc2c(cc1-3)OCO2 [BERBERINE] | 128 µg/mL | 256 µg/mL | 128 µg/mL | > 512 µg/mL | > 512 µg/mL | > 512 µg/mL | – | – | – | – | – | –
